ChEMBL document CHEMBL1909577, “Discovery of 3-hydroxy-4-cyano-isoquinolines as novel, potent, and selective inhibitors of human 11β-hydroxydehydrogenase 1 (11β-HSD1)” (Bioorg Med Chem Lett, 2011)
≈ marks a conversion by molar mass, not a printed value.

What was measured:
Liver microsomes [1] = settings: human, 10 min, 300 µM
Description: Metabolic stability of the compound in human liver microsomes assessed as stability rate per mg of protein at 300 uM after 10 mins by LC-MS/MS analysis in presence of NADPH

Liver microsomes [2] = settings: rat, 10 min, 300 µM
Description: Metabolic stability of the compound in rat liver microsomes assessed as stability rate per mg of protein at 300 uM after 10 mins by LC-MS/MS analysis in presence of NADPH

Liver = settings: mouse, microsomes, 10 min, 300 µM
Description: Metabolic stability of the compound in mouse liver microsomes assessed as stability rate per mg of protein at 300 uM after 10 mins by LC-MS/MS analysis in presence of NADPH

[3] = target: T1, 11-beta-hydroxysteroid dehydrogenase 1 (Mus musculus, UniProt P50172); test: Inhibition of mouse 11beta-HSD1
[4] = Aqueous solubility of the compound; type: physicochemical
[5] = target: T1, 11-beta-hydroxysteroid dehydrogenase 1; test: Inhibition of 11beta-HSD1 in mouse 3T3L1 cells; type: cell-based, 3T3-L1
[6] = Tmax in Balb/C mouse at 10 umol/kg, po; type: ADME, organism-based; settings: in vivo
[7] = Cmax in Balb/C mouse at 10 umol/kg, po; type: ADME, organism-based; parameters: dose 10 umol/kg, route oral; settings: in vivo
[8] = AUC (0 to 8 hrs) in Balb/C mouse at 10 umol/kg, po; type: ADME, organism-based; parameters: time < 8 hr, dose 10 umol/kg, route oral; settings: plasma
[9] = test system: UDP-glucuronosyltransferase (Mus musculus); test: in vitro; settings: human, liver microsomes
[10] = target: T2, 11-beta-hydroxysteroid dehydrogenase 1 (Homo sapiens, UniProt P28845); test: Inhibition of human 11beta-HSD1 expressed in HEK293 cells assessed as conversion of [3H]-cortisone to [3H]-cortisol by scintillation plate reader; type: cell-based
[11] = target: T3, 11-beta-hydroxysteroid dehydrogenase type 2 (Homo sapiens, UniProt P80365); test: Inhibition of 11beta-HSD2
T3 sequence (P80365 whole entry): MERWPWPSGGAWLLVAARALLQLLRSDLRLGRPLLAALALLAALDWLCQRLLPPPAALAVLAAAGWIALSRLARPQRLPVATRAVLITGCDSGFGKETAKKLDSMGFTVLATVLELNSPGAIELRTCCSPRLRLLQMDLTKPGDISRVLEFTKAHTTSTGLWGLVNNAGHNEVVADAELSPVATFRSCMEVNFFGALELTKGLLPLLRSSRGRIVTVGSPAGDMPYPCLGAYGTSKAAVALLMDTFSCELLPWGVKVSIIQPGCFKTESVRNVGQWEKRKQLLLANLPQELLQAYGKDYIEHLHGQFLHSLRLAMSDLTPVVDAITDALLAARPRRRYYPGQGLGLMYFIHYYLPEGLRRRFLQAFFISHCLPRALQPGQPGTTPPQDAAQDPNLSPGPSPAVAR

[12] = Inhibition of cynomolgus monkey 11beta-HSD1; parameters: species or system Macaca fascicularis
[13] = target: T2, 11-beta-hydroxysteroid dehydrogenase 1; test: Inhibition of 11beta-HSD1 in human HEK cells; type: cell-based, HEK293
11β-HSD1 (Mus musculus) = settings: Homo sapiens

T2 sequence (P28845 whole entry): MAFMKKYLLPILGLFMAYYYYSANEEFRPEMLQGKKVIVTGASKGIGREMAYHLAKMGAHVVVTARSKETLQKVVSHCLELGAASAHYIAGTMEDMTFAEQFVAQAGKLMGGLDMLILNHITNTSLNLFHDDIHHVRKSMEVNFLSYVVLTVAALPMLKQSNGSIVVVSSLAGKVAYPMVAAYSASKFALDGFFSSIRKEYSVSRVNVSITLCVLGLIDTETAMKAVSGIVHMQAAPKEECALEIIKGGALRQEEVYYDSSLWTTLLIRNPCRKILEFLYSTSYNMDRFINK
T1 sequence (P50172 whole entry): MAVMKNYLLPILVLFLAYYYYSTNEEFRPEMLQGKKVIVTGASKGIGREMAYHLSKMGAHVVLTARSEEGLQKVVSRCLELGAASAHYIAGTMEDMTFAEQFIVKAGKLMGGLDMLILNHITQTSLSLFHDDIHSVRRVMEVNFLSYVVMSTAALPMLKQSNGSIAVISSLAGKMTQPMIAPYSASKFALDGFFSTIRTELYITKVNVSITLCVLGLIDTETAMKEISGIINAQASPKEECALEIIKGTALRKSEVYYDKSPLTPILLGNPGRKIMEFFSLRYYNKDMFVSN

SMILES | Stability (Liver microsomes [1]) | Stability (Liver microsomes [2]) | Stability (Liver) | IC50 [3] | solubility [4] | further results
N#Cc1c(=O)[nH]c(SCc2ccccc2Cl)c2c(F)cccc12 | 0.12 nmol/min | 0.05 nmol/min | 0.08 nmol/min | 10 nM |  | 
N#Cc1c(O)nc(SCCc2ccccc2Cl)c2c1CCCC2 | 0.18 nmol/min | 0.24 nmol/min | 0.27 nmol/min | 6 nM | 1 µg/mL (≈ 2.9 µM) | 
N#Cc1c(O)nc(SCc2ccccc2)c2c1CCCC2 |  |  |  | 16 nM |  | 
N#Cc1ncccc1CSc1nc(O)c(C#N)c2c1COCC2 | 0 nmol/min | 0 nmol/min | 0.01 nmol/min | 105 nM | 238 µg/mL (≈ 734 µM) | IC50 [5]: 3970 nM; Tmax [6]: 4 h; Cmax [7]: 500 nM; AUC(0-t) at 8 h [8]: 2.9 µM·h; half-life [9]: 0.05 h
N#Cc1ccc(F)c(CSc2nc(O)c(C#N)c3c2CCCC3)c1 | 0.03 nmol/min | Unstable | 0.12 nmol/min | 9 nM |  | 
COc1ccccc1CSc1nc(O)c(C#N)c2c1CCCC2 |  |  |  | 9 nM |  | 
N#Cc1c(O)nc(SCc2ccccc2Cl)c2ccccc12 | 0.17 nmol/min | 0.23 nmol/min | 0.2 nmol/min | 19 nM | 1 µg/mL (≈ 3.06 µM) | 
N#Cc1ccccc1CSc1nc(O)c(C#N)c2c1CCCC2 | 0.15 nmol/min | 0.25 nmol/min | 0.23 nmol/min | 6 nM | 7 µg/mL (≈ 21.8 µM) | 
Oc1cc2c(c(SCc3ccccc3Cl)n1)CCCC2 | 0.27 nmol/min | 0.3 nmol/min | 0.3 nmol/min | 9250 nM |  | 
N#Cc1c(=O)[nH]c(OCc2ccccc2Cl)c2cc(F)ccc12 | 0.05 nmol/min | 0.04 nmol/min | 0.02 nmol/min | 21 nM | 2 µg/mL (≈ 6.08 µM) | IC50 [5]: 2160 nM; Tmax [6]: 4 h; Cmax [7]: 2300 nM; AUC(0-t) at 8 h [8]: 12 µM·h
N#Cc1c(O)nc(SCc2ccccc2Cl)c2cc(F)ccc12 | 0.09 nmol/min | 0.04 nmol/min | 0 nmol/min | 7 nM | 1 µg/mL (≈ 2.9 µM) | IC50 [5]: 2250 nM; Tmax [6]: 4 h; Cmax [7]: 2900 nM; AUC(0-t) at 8 h [8]: 15 µM·h
N#Cc1c(=O)[nH]c(SCc2ccccc2Cl)c2ccc(F)cc12 | 0.12 nmol/min | 0.05 nmol/min | 0.1 nmol/min | 14 nM |  | 
N#Cc1c(O)nc(SCc2ccccc2Cl)c2cccc(F)c12 | 0.24 nmol/min | 0.13 nmol/min | 0.08 nmol/min | 7 nM |  | 
N#Cc1c(O)nc(SCc2ccccc2)c2c1-c1ccccc1CC2 | 0.04 nmol/min | 0.07 nmol/min | 0 nmol/min | 50 nM |  | IC50 [10]: 5 nM; IC50 [11]: 386 nM
N#Cc1c(O)nc(Sc2ccccc2Cl)c2c1CCCC2 | 0.07 nmol/min | 0.15 nmol/min | 0.17 nmol/min | 95 nM | 1 µg/mL (≈ 3.16 µM) | 
N#Cc1ccc(-c2c(O)nc(SCc3ccccc3Cl)c3c2CCCC3)cc1 | 0.19 nmol/min | 0.3 nmol/min | 0.18 nmol/min | 3830 nM | 1 µg/mL (≈ 2.46 µM) | 
N#Cc1c(O)nc(SCc2ccc(Cl)cc2)c2c1CCCC2 | 0.09 nmol/min | 0.3 nmol/min | 0.3 nmol/min | 25 nM | 1 µg/mL (≈ 3.02 µM) | 

SMILES | Stability (Liver microsomes [1]) | Stability (Liver microsomes [2]) | Stability (Liver) | IC50 [3] | solubility [4] | further results
N#Cc1c(O)nc(OCc2ccccc2Cl)c2c1CCCC2 | Unstable | Unstable | Unstable | 6 nM | 1 µg/mL (≈ 3.18 µM) | 
N#Cc1ncccc1CSc1nc(O)c(C#N)c2ccc(F)cc12 | 0 nmol/min | 0.02 nmol/min | 0.02 nmol/min | 24 nM | 3 µg/mL (≈ 8.92 µM) | 
N#Cc1c(O)nc(SCc2ccccc2Cl)c2c1CCCC2 | 0.09 nmol/min | 0.16 nmol/min | 0.17 nmol/min |  | 6 µg/mL (≈ 18.1 µM) | IC50 [12]: 1 nM; Tmax [6]: 1 h; Cmax [7]: 30 nM; AUC(0-t) at 8 h [8]: 0.2 µM·h; half-life [9]: < 0.0167 h
N#Cc1ncccc1CSc1nc(O)c(C#N)c2c1CCCC2 | 0.04 nmol/min | 0.05 nmol/min | 0.05 nmol/min | 10 nM | 38 µg/mL (≈ 118 µM) | 
N#Cc1ccc2c(C#N)c(O)nc(SCc3ccccc3Cl)c2c1 | 0.25 nmol/min | 0.04 nmol/min | 0.05 nmol/min | 62 nM | 8 µg/mL (≈ 22.7 µM) | 
N#Cc1c(O)nc(SCc2ccccc2-c2ccccc2)c2c1CCCC2 |  |  |  | 145 nM |  | 
Oc1nc(SCc2ccccc2Cl)c2c(c1Br)CCCC2 |  |  |  | 2270 nM |  | 
N#Cc1c(O)nc(SCc2ccccc2Cl)nc1-c1ccccc1 |  |  |  | 58 nM |  | IC50 [13]: 1100 nM; IC50 [5]: 2850 nM; IC50 [12]: 53 nM; IC50 (11β-HSD1 (Mus musculus)): 58 nM; Tmax [6]: 1 h; Cmax [7]: 7100 nM; AUC(0-t) at 8 h [8]: 37 µM·h; IC50 [10]: 27 nM; half-life [9]: > 3.33 h
N#Cc1c(O)nc(SCc2ccccc2Cl)c2c1CCOC2 | 0.12 nmol/min | 0.04 nmol/min | 0.07 nmol/min | 21 nM | 8 µg/mL (≈ 24 µM) | 
N#Cc1c(O)nc(SCc2ccccc2Cl)c2c1CCN(Cc1ccccc1)C2 | 0.08 nmol/min | 0 nmol/min | 0.04 nmol/min | 4350 nM |  | 
N#Cc1c(O)nc(SCC2CCC2)c2c1CCCC2 | 0 nmol/min | 0.24 nmol/min | 0.16 nmol/min | 33 nM |  | 
CS(=O)(=O)c1ccccc1CSc1nc(O)c(C#N)c2c1CCCC2 | 0 nmol/min | 0.19 nmol/min | 0.11 nmol/min | 10 nM | 32 µg/mL (≈ 85.5 µM) | 
N#Cc1c(O)nc(S(=O)(=O)Cc2ccccc2Cl)c2c1CCCC2 | 0.07 nmol/min | 0.14 nmol/min | 0.12 nmol/min | 267 nM |  | 
N#Cc1c2c(c(-c3ccccc3)[nH]c1=O)CCCC2 |  |  |  | 4350 nM |  | 
N#Cc1c2c(c(SCc3c(Cl)cccc3Cl)[nH]c1=O)CCCC2 | 0 nmol/min | Unstable | 0 nmol/min | 3 nM | 1 µg/mL (≈ 2.74 µM) | 
N#Cc1c(O)nc(SCc2cccc(Cl)c2)c2c1CCCC2 |  |  |  | 39 nM | 1 µg/mL (≈ 3.02 µM) | 
